# Laboratory results taken from patent EP3233044B1, “ANHYDROUS COSMETIC COMPOSITION FOR TOPICAL APPLICATION IN INTIMATE AREAS” (The Procter & Gamble Company, priority 2014, dated 2016).
# Assays:
# [1] = Thiol Vapor Pressure Suppression (TVPS) index, headspace butanethiol by zNose fast GC; type: physicochemical; settings: 5 µl compound vs 100 µl of 1% v/v butanethiol in ethanol, 37 °C for 4 hours; percentage reduction in butanethiol peak area
# Source text: Thiol Vapor Pressure Suppression (TVPS) index is a measure of the reduction in butanethiol concentration in the headspace by a compound, as measured using a fast GC instrument, the zNose 7100 (Electronic Sensor Technologies, Newbury Park, CA). Before any measurements the instrument is calibrated according to manufacturer's instructions under the same experimental settings. The instrument has a DB-5 column (EST Part No.SYS7100C5, Electronic Sensor Technologies, Newbury Park, CA) 1 m in length, 0.25 µm phase thickness, and 0.25mm in diameter. […]
# TVPS of a compound is measured in the following way: 100 µl ± 1 µl of a 1% v/v butanethiol (99%, purity) solution in ethanol (200 proof) is added into a 1 ml vial (8 x 40 mm). […]
# The amount of butanethiol in the headspace is measured from the area of the peak on the chromatograph for butanethiol (ABtSH,Rx). To calculate the percentage of butanethiol reduction in the headspace, a control with the butanethiol solution without the volatile material is run in the same manner and the area is measured as well (ABtSH,C). TVPS is then measured as the percentage reduction in butanethiol area calculated using the following formula: TVPS = (ABtSH,C −ABtSH,Rx)/(ABtSH,C) × 100 [formula]
# [2] = Solubility of Vitamin B5 derivatives in anhydrous stick formulations; type: physicochemical
# Source text: Additional considerations regarding exemplary Vitamin B5 derivatives may apply. For example, in order to deliver Vitamin B5 (or a derivative thereof) from an anhydrous, hydrophobic, glycol free and antiperspirant free cosmetic stick, a corresponding matrix soluble form or derivative of Vitamin B5 must be used to achieve the desired benefits of hair softening, shave bump reduction and wound healing from shave cut damage. For example, if an incompatible or insoluble form of Vitamin B5 is used, such as panthenol, this will not form a homogenous one phase solution when the ingredients are blended and heated together from the melt.
# As such, the Vitamin B5 derivative utilized should be soluble in the anhydrous, hydrophobic, glycol free and antiperspirant free matrix.
Compound,TVPS [1],"Solublility in hydrophobic Anhydrous, glycol free, antiperspirant free Stick formulations [2]"
CC(C)c1cccc(C(C)CC=O)c1 (stereo not drawn) [Florhydral],50.5,–
Panthenyl Ethyl Ether,–,Soluble
CC(=O)OCCCNC(=O)[C@H](OC(C)=O)C(C)(C)COC(C)=O [Panthenyl Triacetate],–,Soluble
